“Also recorded” adds a separate entry of the source. Where two headings read alike, the source gives them in different places. Blank lines part the entries; values can stand above or below the substance they belong to. Square brackets hold non-standard residues; d marks the D form. Ends that are not written are not given here.
Columns and labels:
human artery wall cells = conditions: cited from earlier work; for inhibition of LDL-induced MCP-1 production by cultured human artery wall cells: Datta et al. (2001); for inhibiting monocyte chemotactic activity production by human artery wall cells exposed to human LDL: FIG. 1, adapted from Datta et al. (2001)
mice [1] = assay: 4F peptide without end groups in mice; format: in vivo
Text: The 4F peptide (Ac-D-W-F-K-A-F-Y-D-K-V-A-E-K-F-K-E-A-F-NH2, (SEQ ID NO:1)) has end blocking groups (Ac— and —NH2) that stabilize the class A amphipathic helix and dramatically increase efficacy (Venkatachalapathi et al. (1993) Proteins Structure Function Genet. 15: 349-359; Yancey et al. (1995) Biochemistry. 34: 7955-7965; Datta et al. (2001) J. Lipid Res. 42: 1096-1104; Anantharamaiah et al. (2007) J. Lipid Res., 48: 1915-1923). […] The required end (protecting) groups for 4F and for a number of other apoA-I mimetic peptides (Navab et al. (2010) Arterioscler. Thromb. Vasc. Biol. 30: 164-168) can only be added by chemical synthesis; living organisms cannot be engineered to make a molecule containing these end groups. Thus, the production of peptide for clinical use at these doses would not be practical because of the cost of producing this amount of peptide by solid phase synthesis.
Unfortunately, producing sufficient peptide to make therapy in humans practical was not likely because the 4F peptide requires end blocking groups that can only be added through chemical synthesis. […] This led us to seek alternative peptides synthesized from all L-amino acids that might be effective without end blocking groups.

apoE−/− mice [2] = conditions: cited from earlier work
[3] = system: mouse model of ovarian cancer; conditions: cited from earlier work
LDLR−/− mice [4] = conditions: cited from earlier work
[5] = in vivo; cited from earlier work
[6] = system: apolipoprotein (apo)E null mice; conditions: cited from earlier work
cholesterol-fed rabbits = conditions: 10 mg/kg/day; cited from earlier work
[7] = system: LDL-induced monocyte chemoattractant protein-1 (MCP-1) production by cultured human artery wall cells; conditions: cited from earlier work
[8] = system: enzymes involved in the formation of LPA; assay: Microarray of gene expression in the small intestine; format: in vivo, mice; conditions: Western Diet or chow, D-4F in drinking water
Experimental: To explore the mechanism of action, a microarray experiment to determine gene expression levels in the small intestine from mice fed the Western Diet or a chow diet and given or not given D-4F in their drinking water was performed. It was previously shown that D-4F administration reduces LPA levels similar to transgenic 6F tomatoes.

[9] = system: apoE−/− mice made diabetic; conditions: oral administration; cited from earlier work
LDLR−/− mice [10] = conditions: cited from earlier work; for intact peptide in plasma after oral administration: mouse, in vivo; for inflammatory properties of HDL and LDL in a cell-based assay: single dose 5 mg/kg by stomach tube, four hours, 5 mg/kg
apoE−/− mice [11] = conditions: cited from earlier work; remark: listed apart in the source
[12] = Identification and quantification of 6F in small intestine and plasma; format: in vivo, mice
Experimental: Female LDLR−/− mice 8-9 months of age (n=6) were fasted overnight and fed WD with transgenic 6F lyophilized tomato powder added to WD to provide 900 μg of 6F in 2 grams of diet. Over a period of 30-90 minutes, each mouse ate all of the 2 grams of diet. Approximately 2 hours after finishing the food the mice were bled and the small intestine was obtained (including contents), homogenized in acetonitrile:water (1:1), chromatographed by HPLC and subjected to SDS PAGE as described in Materials and Methods of Example 3. Plasma was lyophilized and resuspended in acetonitrile:water (1:1), chromatographed by HPLC and subjected to SDS PAGE as described in Materials and Methods of Example 3. […] The lanes were scanned for quantification as described in Materials and Methods of Example 3.
For analysis of the small intestine, 200 mg of small intestine (including contents) were homogenized in 10 mL of acetonitrile:water (1:1) and the homogenates were lyophilized and re-suspended in 400 μL of acetonitrile:water (1:1). […] Samples were run on HPLC using a C-18 Reverse Phase analytical column and a gradient solvent system of acetonitrile: water (30% to 80% in 20 min) in the presence of 0.1% TFA and monitored at 280 nm. […]
The data presented above indicate that the peptide in the transgenic 6F tomatoes is acting in the small intestine. […] No 6F peptide was detected in the plasma of any of the six mice. […]

mice [13] = conditions: mouse, in vivo; cited from earlier work
[14] = doses of 4.5 and 45 mg/kg, oral or SQ

Substance: Ac-D-W-F-K-A-F-Y-D-K-V-A-E-K-F-K-E-A-F-NH2 (Ac-DWFKAFYDKVAEKFKEAF-NH2) [4F]
inhibition of LDL-induced MCP-1 production by cultured human artery wall cells (human artery wall cells): highly effective
inhibiting monocyte chemotactic activity production by human artery wall cells exposed to human LDL (human artery wall cells): indistinguishable
fold less effective in vivo in the absence of the end groups (mice [1]; mice, without Ac- and -NH2 end groups, unpublished studies): 25,000 fold
plasma levels of free oxidized fatty acids (5-HETE, 15-HETE, 9-HODE, 13-HODE) (apoE−/− mice [2]; after administration of the 4F peptide): significantly decreased
esterified oxidized fatty acid levels (apoE−/− mice [2]; mouse, in vivo): unchanged
plasma levels of 20-HETE (apoE−/− mice [2]; mouse, in vivo): did not decrease
number of tumor nodules ([3]; mouse, in vivo): reduction
tumor volume ([3]; mouse, in vivo): significant reduction

Substance: Ac-D-W-F-K-A-F-Y-D-K-V-A-E-K-F-K-E-A-F-NH2 [D-4F] (Ac-[dD][dW][dF][dK][dA][dF][dY][dD][dK][dV][dA][dE][dK][dF][dK][dE][dA][dF]-NH2)
changes in SAA, triglycerides, HDL-cholesterol and paroxonase activity induced by feeding 15-HETE in chow (LDLR−/− mice [4]; SQ D-4F, chow without WD): significantly ameliorated
HDL-cholesterol (LDLR−/− mice [4]; SQ or oral): increased
plasma SAA levels (LDLR−/− mice [4]; SQ or oral): reduced
plasma triglyceride levels (LDLR−/− mice [4]; SQ or oral): reduced
levels of 20-HETE (LDLR−/− mice [4]; SQ or orally): unchanged
levels of free metabolites of arachidonic and linoleic acids in intestine, liver and hepatic bile (LDLR−/− mice [4]; SQ or orally): significantly reduced
clearance from tissues, particularly liver and kidney [5]: delayed clearance
reduction of aortic atherosclerosis ([6]; 45 mg/kg/day, Western diet, orally or SQ): ~50%
plasma levels of SAA ([6]; 45 mg/kg/day, Western diet): significantly reduced
plasma levels of lysophosphatidic acid ([6]; 45 mg/kg/day, Western diet): significantly reduced
HDL inflammatory index ([6]; doses of 0.15 or 0.45 mg/kg): did not
plasma serum amyloid A (SAA) levels ([6]; doses of 0.15 or 0.45 mg/kg): did not
HDL inflammatory index [6, 14]: significantly reduced
plasma serum amyloid A (SAA) levels [6, 14]: significantly reduced
efficacy of L-4F and D-4F by injection (cholesterol-fed rabbits): identical
HDL inflammatory index (HII) ([7]; oral doses of 0.43 and 1.43 mg/kg): not effective
HDL inflammatory index (HII) ([7]; oral doses of 4.3 and 7.14 mg/kg): significantly improved
expression of enzymes involved in the formation of LPA [8]: none of the enzymes involved in the formation of LPA changed their expression significantly
aortic atherosclerosis [9]: significantly decreased
hepatic content of free arachidonic acid and free oxidized fatty acids [9]: significantly decreased
other plasma lipid or lipoprotein levels [9]: without affecting
intact peptide in plasma after oral administration (LDLR−/− mice [10]): intact peptide identified
inflammatory properties of HDL and LDL in a cell-based assay (LDLR−/− mice [10]): dramatically and significantly improved

Substance: Ac-D-W-F-K-A-F-Y-D-K-V-A-E-K-F-K-E-A-F-NH2 [L-4F] (Ac-DWFKAFYDKVAEKFKEAF-NH2) [4F peptide synthesized from all L-amino acids]
aortic lesions (apoE−/− mice [11]; L-4F administered with niclosamide): induced lesion regression
aortic atherosclerosis (apoE−/− mice [11]; in chow 10 mg/kg/day for six months with low dose statin in drinking water): did not significantly change
clearance from tissues, particularly liver and kidney [5]: this was not the case
efficacy of L-4F and D-4F by injection (cholesterol-fed rabbits): identical
HDL inflammatory index (HII) ([7]; 0.042-1.43 mg/kg IV or SQ): no improvement
intact peptide in plasma after oral administration (LDLR−/− mice [10]): virtually no intact peptide
inflammatory properties of HDL and LDL in a cell-based assay (LDLR−/− mice [10]): not
LPA levels ([3]; L-4F containing blocking groups, b323: in mouse chow, 100 mg/kg/day): significantly reduced; also recorded: significantly decreased
tumor burden ([3]; in mouse chow, 100 mg/kg/day): significantly decreased

Substance: DWFKAFYDKFFEKFKEFF [7F, apoA-I mimetic peptide]
inhibition of LDL-induced MCP-1 production by cultured human artery wall cells (human artery wall cells): did not

Substance: DWFKAFYDKVAEKFKEAF [4F peptide without end blocking groups, 4F peptide lacking the Ac- and -NH2 end groups]
activity of the peptide without end blocking groups (mice [1]; mouse models, data not shown): dramatically reduced

6F peptide in the plasma (not detected; lower limit of detection) ([12]; ~2 hours after eating 900 μg of 6F in transgenic 6F tomato powder): < 100 ng/mL
Substance: DWLKAFYDKFFEKFKEFF [6F, D-W-L-K-A-F-Y-D-K-F-F-E-K-F-K-E-F-F]
intact 6F peptide in the small intestine (Mean±SD) ([12]; ~2 hours after eating 900 μg of 6F in transgenic 6F tomato powder in 2 grams of WD, n=6): 15.6±7.4 μg 6F per 200 mg small intestine

Substance: DWLKAFYDKVAEKLKEAF [2F, apoA-I mimetic peptide with phenylalanine at positions 6 and 18]
inhibition of LDL-induced MCP-1 production by cultured human artery wall cells (human artery wall cells): not very effective
diet induced atherosclerosis in mice (mice [13]): failed to decrease

Substance: DWLKAFYDKVFEKFKEFF [5F, apoA-I mimetic peptide]
inhibition of LDL-induced MCP-1 production by cultured human artery wall cells (human artery wall cells): able to efficiently inhibit
inhibiting monocyte chemotactic activity production by human artery wall cells exposed to human LDL (human artery wall cells): indistinguishable
diet induced atherosclerosis in mice (mice [13]): inhibiting atherosclerosis
tumor angiogenesis in mice (mice [13]): inhibiting tumor angiogenesis
